“And” between values parts separate entries of the source, which are not always exact repeats. Equal entries are not always repeated.
Experiments:
[1] = HPN-100-005 pharmacokinetics of HPN-100 and NaPBA in pediatric UCD patients; format: in vivo, human; conditions: HPN-100-005 (N = 11)
Text: (§1) The pharmacokinetics of the short term studies can be summarized as follows. Mean exposure levels of HPN-100 metabolites PBA, PAA, and PAGN after doses of HPN-100 and NaPBA with meals (TID) in pediatric (29 days to 17 years of age) UCD patients in HPN-100-005 and HPN-100-012 studies are summarized below. The mean exposure to PBA, the parent metabolite, and mean exposure to PAGN, the terminal metabolite, show no systematic variation across age groups, while PAA exposure tended to decrease with increasing age, a finding consistent with those from population PK modeling which indicate that the rate of clearance/metabolism of PAA varies directly with body size. While systemic metabolite exposure, assessed as peak plasma concentration (Cmax) or AUC, is generally similar for HPN-100 and NaPBA, the minimum concentration (Cmin-ss) was higher—and/or percent-fluctuation less—for plasma PAGN, a finding consistent with slower gastrointestinal absorption of PBA when administered orally as HPN-100.

[2] = HPN-100-012 switch-over study, pharmacokinetics of HPN-100 and NaPBA in pediatric UCD patients; format: in vivo, human; conditions: HPN-100-012 (N = 15), TID with meals
Experimental: HPN-100-012, an open-label, fixed sequence, switch-over study of the safety, PK and efficacy of HPN-100 compared to NaPBA in patients with UCDs, with a 12-month safety extension part. The switch-over part of the study and the 12-month safety extension are complete. The switch-over part was conducted at 7 U.S. centers and enrolled 15 pediatric UCD patients between 29 days and <6 year of age, all of whom completed the study. After review of all the safety data by the DSMB, 8 additional subjects were enrolled in the study after the switch-over phase was completed. The primary efficacy endpoint was the 24-hour AUC (area under the curve) for blood ammonia on Day 1 compared with Day 10.
as §1

[3] = test system: venous ammonia in pediatric patients with UCDs; test: Studies 4/4E and 5, uncontrolled open-label studies in children under 2 years of age; format: in vivo, human
Experimental: Uncontrolled, open-label studies were conducted to assess monthly ammonia control and hyperammonemic crisis of RAVICTI® in pediatric patients with UCDs 2 months to less than 2 years of age (Study 4/4E, Study 5, and Study 6). Patients in Study 5 previously participated in Study 4/4E. A total of 17 pediatric patients with UCDs aged 2 months to less than 2 years participated in the studies.
A total of 7 patients with UCDs aged 2 months to less than 2 years participated in Studies 4/4E and 5. In these studies, there were 7, 6, 6, 6 and 3 pediatric patients who completed 1, 6, 9, 12 and 18 months, respectively (mean and median exposure of 15 and 17 months, respectively). Patients were converted from sodium phenylbutyrate to RAVICTI®. The dosage of RAVICTI® was calculated to deliver the same amount of PBA as the sodium phenylbutyrate dosage the patients were taking when they entered the study.
Patients received a mean RAVICTI® dose of 7.5 mL/m^2/day (8.2 g/m^2/day), with doses ranging from 3.3 to 12.3 mL/m^2/day (3.7 to 13.5 g/m^2/day). Patients were dosed three times a day (n=3) or four times a day (n=4).
Venous ammonia levels were monitored on days 1, 3 and 10 in Study 4 and at week 1 in Study 4E. Two patients had day 1 ammonia values of 122 micromol/L and 111 micromol/L respectively, neither had associated signs and symptoms of hyperammonemia.
During the extension period, venous ammonia levels were monitored monthly. Ammonia values across different laboratories were normalized (transformed) to a common normal pediatric range of 28 to 57 micromol/L for comparability. The mean venous ammonia values in pediatric patients at month 1, 3, 6, 9 and 12 were 58, 49, 34, 65, and 31 micromol/L during treatment with RAVICTI®, respectively.
Three patients reported a total of 3 hyperammonemic crises, as defined in Study 6. Hyperammonemic crises were precipitated by gastroenteritis, vomiting, infection or no precipitating event (one patient). There were 4 patients who had one venous ammonia level that exceeded 100 micromol/L which was not associated with a hyperammonemic crisis.

[4] = test system: pancreatic lipase-related protein; conditions: cited from earlier work
ammonia in UCD patients = test: Open label fixed-sequence switch-over comparison of RAVICTI to NaPBA, 4 patients aged 2 months to 2 years; format: in vivo, human
Text: While the U.S. approval of RAVICTI® was based on its evaluation in 6 clinical trials involving over 100 adult and pediatric UCD patients aged 2 months old and above, only 7 patients aged 2 months to 2 years were enrolled in these studies. […] PAA exposure, also assessed as 24-hour area under the curve, was very similar. However, the number of patients in this age group studied at the time of RAVICTI's approval was small and considerable patient-to-patient variability was observed.

[5] = pediatric UCD patients, TID with meals, arithmetic mean
[6] = Studies 4/4E, 5 extension period, normalized to 28 to 57 micromol/L

Structure (SMILES): O=C(CCCc1ccccc1)OCC(COC(=O)CCCc1ccccc1)OC(=O)CCCc1ccccc1 [HPN-100, benzenebutanoic acid, 1′,1″-(1,2,3-propanetriyl) ester]
- Plasma PAA CLss/F [1, 5]: 15082 mL/min
- Plasma PBA CLss/F [1, 5]: 20545 mL/min
- Plasma PAGN CLss/F ([1]; pediatric UCD patients, TID with meals, arithmetic mean (CV %)): 14237 mL/min
- U-PAGN Ae0-12 ([1]; urinary PAGN excreted 0-12 h, arithmetic mean): 5611719 µg
- U-PAGN Ae12-24 ([1]; urinary PAGN excreted 12-24 h, arithmetic mean): 6889318 µg
- U-PAGN Ae ([1]; urinary PAGN excreted, arithmetic mean): 12501037 µg
- Plasma PAA % Fluctuation ([2]; arithmetic mean): 2141%
- Plasma PAA AUC0-24 ([2]; arithmetic mean): 1096 µg·h/mL
- Plasma PAA CLss/F ([2]; arithmetic mean): 25538 mL/min
- Plasma PAGN CLss/F ([2]; arithmetic mean): 10830 mL/min
- Plasma PBA CLss/F ([2]; arithmetic mean): 22610 mL/min
- Plasma PBA Cmin-ss ([2]; arithmetic mean): 750 ng/mL
- Plasma PAA Cmax-ss ([2]; arithmetic mean (CV %)): 84700 ng/mL
- Plasma PAA Cmin-ss ([2]; arithmetic mean (CV %)): 26100 ng/mL
- Plasma PAGN Cmin-ss ([2]; arithmetic mean (CV %)): 19900 ng/mL
- patients with one venous ammonia level exceeding 100 micromol/L not associated with a hyperammonemic crisis ([3]; Studies 4/4E, 5): 4 patients
- total hyperammonemic crises ([3]; Studies 4/4E, 5, reported by three patients): 3
- mean venous ammonia, month 1 [3, 6]: 58 µmol/L
- mean venous ammonia, month 3 [3, 6]: 49 µmol/L
- mean venous ammonia, month 6 [3, 6]: 34 µmol/L
- mean venous ammonia, month 9 [3, 6]: 65 µmol/L
- mean venous ammonia, month 12 [3, 6]: 31 µmol/L
- day 1 ammonia values of two individual patients ([3]; Studies 4/4E, no associated signs and symptoms of hyperammonemia, listed as RAVICTI®): 122 µmol/L and 111 µmol/L
- patients with venous ammonia levels less than 100 micromol/L at day 10/week 1 ([3]; Studies 4/4E, of the 7 patients): six
- day 10 ammonia value of the remaining patient ([3]; Study 4, asymptomatic): 168 µmol/L
- hydrolysis in vitro by pancreatic lipase-related protein [4]: hydrolyze
- PAA exposure assessed as 24-hour area under the curve, RAVICTI vs NaPBA (ammonia in UCD patients): very similar
- mean ammonia exposure assessed at 24-hour area under the curve, RAVICTI vs NaPBA (ammonia in UCD patients): non-inferior

From US20170348269A1, “TREATMENT OF UREA CYCLE DISORDERS IN NEONATES AND INFANTS” (Horizon Therapeutics, LLC, priority 2016, published 2017)
